One assay addresses T1, Human Axl (Homo sapiens, UniProt P30530).
T1 construct: Human AXL (residues 464-885)
T1 sequence (P30530 1-894 Q764R): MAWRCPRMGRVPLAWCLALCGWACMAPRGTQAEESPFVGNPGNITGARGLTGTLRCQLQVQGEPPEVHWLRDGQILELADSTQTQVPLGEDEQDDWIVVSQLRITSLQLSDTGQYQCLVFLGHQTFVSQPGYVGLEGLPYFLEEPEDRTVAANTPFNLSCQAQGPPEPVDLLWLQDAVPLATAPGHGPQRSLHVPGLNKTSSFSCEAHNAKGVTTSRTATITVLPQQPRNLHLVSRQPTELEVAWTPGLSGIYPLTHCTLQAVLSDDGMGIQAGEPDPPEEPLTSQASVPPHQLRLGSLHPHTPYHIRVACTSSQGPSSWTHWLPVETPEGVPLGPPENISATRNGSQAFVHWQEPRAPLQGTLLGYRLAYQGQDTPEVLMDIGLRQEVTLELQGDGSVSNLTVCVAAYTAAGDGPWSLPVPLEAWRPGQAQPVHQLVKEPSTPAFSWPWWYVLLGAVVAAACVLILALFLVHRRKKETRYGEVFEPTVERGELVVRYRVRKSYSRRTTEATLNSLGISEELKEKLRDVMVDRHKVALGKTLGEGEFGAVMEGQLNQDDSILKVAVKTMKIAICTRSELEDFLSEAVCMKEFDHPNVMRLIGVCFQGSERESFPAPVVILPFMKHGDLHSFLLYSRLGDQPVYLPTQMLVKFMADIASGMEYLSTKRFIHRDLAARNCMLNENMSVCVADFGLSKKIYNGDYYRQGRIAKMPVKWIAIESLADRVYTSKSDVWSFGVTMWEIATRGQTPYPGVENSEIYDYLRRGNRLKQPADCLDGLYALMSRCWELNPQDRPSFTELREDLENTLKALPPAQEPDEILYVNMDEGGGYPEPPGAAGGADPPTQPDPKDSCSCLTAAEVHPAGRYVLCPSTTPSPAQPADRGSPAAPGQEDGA
The experiment in a line: Human AXL kinase assay (33P radiometric / HTRF KinEase). The assay is classed as biochemical. The settings on record: protocols of Examples A-1 and/or A-2.

The next assay has as its target T2, Human KDR (Homo sapiens, UniProt P35968).
T2 construct: Human KDR (residues K790-V1356, 55 nM); purchased Eurofins Pharma Discovery Services UK Limited (KinaseProfiler, B-1) and/or CarnaBio (B-2)
The experiment in a line: Human KDR kinase assay (33P radiometric / HTRF KinEase). It counts as biochemical. The settings on record: protocols of Examples B-1 and/or B-2. In short, it runs like this: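 Radiometric: KDR K790-V1356 (55 nM), MOPS pH 7.0, myelin basic protein, 10 μM [γ-33P]ATP, 40 min at room temperature, filter-bound 33P counted; nine half-log doses, top 1 μM. HTRF: KDR 790-1356, 1 μM biotinylated peptide, ATP at Km (4.0 μM), 40 min, 10 doses. IC50 from logistic fits.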
For orientation: In TR-FRET formats the signal depends on donor and acceptor labels being close together.

What is called IC50 is the concentration that gives 50% inhibition. Low values mean greater potency, high ones weaker potency.

T2 sequence (P35968 790-1356): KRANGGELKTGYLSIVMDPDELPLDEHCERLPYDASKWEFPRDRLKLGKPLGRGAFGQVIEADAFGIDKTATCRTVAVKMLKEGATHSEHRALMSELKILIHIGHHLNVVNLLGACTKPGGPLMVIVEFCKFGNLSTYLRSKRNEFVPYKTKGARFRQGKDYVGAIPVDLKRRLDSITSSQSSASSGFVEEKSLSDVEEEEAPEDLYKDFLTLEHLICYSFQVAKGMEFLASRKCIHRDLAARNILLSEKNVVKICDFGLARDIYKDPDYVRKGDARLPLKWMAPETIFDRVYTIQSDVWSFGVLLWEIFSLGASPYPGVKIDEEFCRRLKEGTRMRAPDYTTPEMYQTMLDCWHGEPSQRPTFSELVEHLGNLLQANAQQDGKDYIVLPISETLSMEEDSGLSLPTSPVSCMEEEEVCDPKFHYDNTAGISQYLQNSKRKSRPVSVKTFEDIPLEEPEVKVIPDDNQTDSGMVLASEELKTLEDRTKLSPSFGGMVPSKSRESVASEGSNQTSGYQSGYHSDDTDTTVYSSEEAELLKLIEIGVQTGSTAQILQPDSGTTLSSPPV

For the compound `COc1cc2nccc(Oc3ccc(NC(=O)c4c(C)nc(C)c(C(=O)N(C)C)c4O)cc3F)c2nc1OC` [Compound 93, 3-N-[4-[(6,7-Dimethoxy-1,5-naphthyridin-4-yl)oxy]-3-fluorophenyl]-4-hydroxy-5-N,5-N,2,6-tetramethylpyridine-3,5-dicarboxamide], the IC50 at Human Axl and at Human KDR was at most 100 nM each time.

Take `COc1cc2nccc(Oc3ccc(NC(=O)c4c(C)nc(C)c(C(=O)NC(C)C)c4O)cc3F)c2nc1OC` [Compound 94, 3-N-[4-[(6,7-Dimethoxy-1,5-naphthyridin-4-yl)oxy]-3-fluorophenyl]-4-hydroxy-2,6-dimethyl-5-N-propan-2-ylpyridine-3,5-dicarboxamide]: the IC50 against Human Axl and on Human KDR was at most 100 nM throughout.

With `COc1cc2nccc(Oc3ccc(NC(=O)c4c(C)n(C)c(C)c(C(=O)N(C)C)c4=O)cc3F)c2nc1OC` [Compound 95, 5-N-[4-[(6,7-Dimethoxy-1,5-naphthyridin-4-yl)oxy]-3-fluorophenyl]-3-N,3-N,1,2,6-pentamethyl-4-oxopyridine-3,5-dicarboxamide], the values for the IC50 on Human Axl and at Human KDR were 100 to 300 nM and above 300 nM, respectively.

Turning to `COc1cc2nccc(Oc3ccc(NC(=O)c4c(C)n(C)c(C)c(C(=O)NC5CC5)c4=O)cc3F)c2nc1OC` [Compound 96, 3-N-Cyclopropyl-5-N-[4-[(6,7-dimethoxy-1,5-naphthyridin-4-yl)oxy]-3-fluorophenyl]-1,2,6-trimethyl-4-oxopyridine-3,5-dicarboxamide], the IC50 against Human Axl and against Human KDR was above 300 nM each time.

Regarding `CNC(=O)c1c(C)nc(C)c(C(=O)Nc2ccc(Oc3ccnc4cc(OC)c(OC)nc34)c(F)c2)c1O` [Compound 97, 3-N-[4-[(6,7-Dimethoxy-1,5-naphthyridin-4-yl)oxy]-3-fluorophenyl]-4-hydroxy-5-N,2,6-trimethylpyridine-3,5-dicarboxamide], the IC50 against Human Axl is at most 100 nM; at Human KDR, 100 to 300 nM.

`COc1cc2nccc(Oc3ccc(NC(=O)c4c(C)nc(C)c(C(=O)NC5CC5)c4O)cc3F)c2nc1OC` [Compound 98, 5-N-Cyclopropyl-3-N-[4-[(6,7-dimethoxy-1,5-naphthyridin-4-yl)oxy]-3-fluorophenyl]-4-hydroxy-2,6-dimethylpyridine-3,5-dicarboxamide]: the IC50 at Human Axl and at Human KDR was at most 100 nM throughout.

Take `COc1cc2nccc(Oc3ccc(NC(=O)c4c5n(c(C)c(C6=CCCC6)c4=O)CCOC5)cc3)c2nc1OC` [Compound 99, 7-(Cyclopenten-1-yl)-N-[4-[(6,7-dimethoxy-1,5-naphthyridin-4-yl)oxy]phenyl]-6-methyl-8-oxo-3,4-dihydro-1H-pyrido[2,1-c][1,4]oxazine-9-carboxamide]: the IC50 was at most 100 nM against Human Axl and above 300 nM against Human KDR.

In the case of `COc1cc2nccc(Oc3ccc(NC(=O)c4c5n(c(C)c(C6=CCCCC6)c4=O)CCOC5)cc3)c2nc1OC` [Compound 100, 7-(Cyclohexen-1-yl)-N-[4-[(6,7-dimethoxy-1,5-naphthyridin-4-yl)oxy]phenyl]-6-methyl-8-oxo-3,4-dihydro-1H-pyrido[2,1-c][1,4]oxazine-9-carboxamide], the results for the IC50 at Human Axl and against Human KDR were at most 100 nM and above 300 nM, respectively.

Take `COc1cc2nccc(Oc3ccc(NC(=O)c4c5n(cc(C6=CCCCC6)c4=O)CCOC5)cc3)c2nc1OC` [Compound G1-5, 7-(Cyclohexen-1-yl)-N-[4-[(6,7-dimethoxy-1,5-naphthyridin-4-yl)oxy]phenyl]-8-oxo-3,4-dihydro-1H-pyrido[2,1-c][1,4]oxazine-9-carboxamide]: the IC50 is at most 100 nM against Human Axl and above 300 nM at Human KDR.

For the compound `COc1cc2nccc(Oc3ccc(NC(=O)c4c5n(cc(C6=CCOCC6)c4=O)CCOC5)cc3)c2nc1OC` [Compound G1-8, 7-(3,6-Dihydro-2H-pyran-4-yl)-N-[4-[(6,7-dimethoxy-1,5-naphthyridin-4-yl)oxy]phenyl]-8-oxo-3,4-dihydro-1H-pyrido[2,1-c][1,4]oxazine-9-carboxamide], the IC50 against Human Axl was at most 100 nM; at Human KDR it was above 300 nM.

Source of the values: US20240158393A1, “PYRIDONE COMPOUNDS AND METHODS OF USE” (Exelixis, Inc., priority 2021, published 2024).
